Test results taken from patent US20090270342A1, “IMMUNOREGULATORY AGENT” (priority 2006, published 2009).

How the values were obtained:
[1] = system: IgA and IgG in cecal content; test: pH, weight, IgA and IgG of cecal content (Experiment 2); format: in vivo, mice; details: Lactosucrose 5% (w/w) diet, four weeks
Experimental: The effect of lactosucrose on the enhancement of gut immunity was investigated by measuring the amounts of IgA and IgG in cecal content. Mice reared for four weeks on the test diet comprising 5% (w/w) of lactosucrose or the control diet, “AIN-93G”, in Experiment 1 were sacrificed and the cecums were extirpated. Successively, the cecal content in each mouse was collected from the cecum and the pH, weight, the amounts of IgA and IgG were measured. The amounts of IgA and IgG were determined by ELISA using an anti-IgA antibody and that using an anti-IgG antibody (Mouse IgG ELISA Quantitation Kit produced by Bethyl Laboratories, Inc., Texas, USA), and expressed by mg/g-cecal content and ng/g-cecal content, respectively. The percentages in parentheses in Table 2 mean the relative values to those of the control.

[2] = system: cedar- and Japanese cypress-pollen disease; test: Clinical symptom scores in cedar- and Japanese cypress-pollen allergy, double blind test (Experiment 8); format: in vivo, human
Experimental: In Experiments 4 to 7, it was confirmed that the production of IgE and cytokines, which involves in allergic symptoms, is suppressed by ingesting lactosucrose. Based on the results, an experiment for investigating the suppressing effect of lactosucrose on the clinical symptoms caused by ceder- and Japanese cypress-pollen was carried out as follows. Volunteers who had been self-diagnosed to have allergic symptoms of nose or eyes at a season of cedar- and Japanese cypress-pollen (February to May) in the past two to three years, were recruited as subjects. An interview about the clinical symptoms of nose and eyes for the past two to three years was carried out to the applied volunteers with referencing a guideline for the diagnosis of pollinosis, “HANA ALLERGY SHINDAN GUIDELINE—TUNENSEI BIEN TO KAFUNSHO—2005 NENDO-BAN (Guideline for the diagnosis of nose allergy—chronic allergic rhinitis and pollinosis 2005 edition)”, edited by the committee for the guideline for the diagnosis of nose allergy, published by Life Science pp. 20-24 (2006). Based on the results, 40 persons estimated to be cedar- and Japanese cypress-pollen disease were selected as subjects. The subjects were divided into two groups, a test group ingesting lactosucrose (ingesting 3 g of lactosucrose every day) and a control group ingesting placebo, regarding with a score of clinical symptoms of the subjects. Then, “NYU-KA OLIGO 700”, a 76% (w/w)-solid content syrup, comprising lactosucrose, commercialized by Hayashibara Shoji Inc., Okayama, Japan, which comprises 71.5% (w/w) of lactosucrose, 13.7% (w/w) of sucrose, 7.5% (w/w) of lactose, and 7.3% (w/w) of other saccharides, on a dry solid basis, was repackaged into aluminum pillowcases with about 6 g/package (3 g of lactosucrose/package) and the resulting packages were distributed to the subjects of the lactosucrose-ingesting group. In the same manner, “CORN SUGAR A-33”, an about 75% (w/w)-solid content isomerized sugar syrup comprising sucrose, commercialized by Sanwa Cornstarch Co., Ltd., Nara, Japan, which comprises 33.5% (w/w) of sucrose, 33.7% (w/w) of glucose, and 29.2% (w/w) of fructose, on a dry solid basis, was repackaged into packages with about 6 g/package similarly as in the above and distributed to the subjects of the placebo-ingesting group. The ingestion was started at Jan. 16, 2007 (zero week), before the beginning of cedar-pollen season, and then subjects were allowed to ingest one package of the test substance at any time every day for 18 weeks. The methods for ingesting the test substance were not restricted and the subjects were permitted to ingest directly from the package or after mixing with other foods and beverages. The experiment was carried out with double blind test and the subjects were not restricted except for ingesting the test substance and were allowed to take medicines including an anti-allergic agent. For evaluating the suppression of allergic symptoms by ingesting the test substance, questionnaire survey was carried out to subjects about clinical symptoms of nose and eyes and difficulties on daily life once per week for 21 weeks, from one week before from starting the ingestion of the test substance to two weeks after of the end of the ingestion. The first questionnaire survey was carried out […]. Based on the respective result of the questionnaire of the group ingesting lactosucrose and the control group, the effects were evaluated by scores determined with regarding the suppressive effect on allergic symptoms of medicines such as an anti-allergic agent used during the test period. […] 9, 2007; the beginning of March; and the end of March; respectively, in the test area, the southern part of Okayama Prefecture. […] 27, 2007; and the end of April in the test area. Accordingly, the ingestion of the test substance in the experiment was started about three weeks before the cedar pollen season. […]

[3] = in vivo; cited from earlier work
[4] = 3 g of lactosucrose every day, after the start of ingesting the test substance

OC[C@H]1O[C@@H](O[C@H]2[C@H](O)[C@@H](O)[C@@H](O[C@]3(CO)O[C@H](CO)[C@@H](O)[C@@H]3O)O[C@@H]2CO)[C@H](O)[C@@H](O)[C@H]1O [Lactosucrose, β-D-galactosyl-(1,4)-α-D-glucosyl-(1,2)-β-D-fructoside]
IgA in cecal content [1]: 5.6 ± 1.6 mg/g | IgA in cecal content, relative value to control [1]: (982%) | IgG in cecal content [1]: 140 ± 54 ng/g | IgG in cecal content, relative value to control [1]: (117%) | Weight of cecal content [1]: 0.22 ± 0.051 g | Weight of cecal content, relative value to control [1]: (169%) | pH of cecal content [1]: 6.63 ± 0.27 | Increase of the amount of secreted IgA in cecal content ([1]; versus control): about 10 folds | Generation of clinical symptoms and difficulties on daily life in comparison with the control group ([2]; 3 g of lactosucrose every day (NYU-KA OLIGO 700), 18 weeks, human pollinosis subjects): delayed by one week | Score of clinical symptoms of nose compared with the control group ([2]; 3 g of lactosucrose every day, 18 weeks, FIG. 1): kept lower value than those of the control group during four to 10 weeks | Score of clinical symptoms of eyes compared with the control group ([2]; 3 g of lactosucrose every day, 18 weeks, FIG. 2): lower than those of the control group though the test period | Score of difficulties on daily life compared with the control group ([2]; 3 g of lactosucrose every day, 18 weeks, FIG. 3): lower than those of the control group though the test period | Time at which the score of clinical symptoms of eyes reached a peak [2, 4]: eight weeks | Time at which the score of clinical symptoms of nose reached a peak [2, 4]: seven weeks | Time at which the score of difficulties on daily life reached a peak [2, 4]: seven weeks | Effect of a dose higher than the maximum dose without harmful effect [3]: causes diarrhea | Maximum dose of lactosucrose without harmful effect [3]: 0.6-0.8 g/kg-body weight
